Source: patent US10435406B2, “6,7-cyclicmorphinan derivatives and use thereof” (Purdue Pharma L.P., priority 2014, dated 2019)

Columns and labels:
μ-opioid receptor [1] = target: T1, μ-opioid receptor (Homo sapiens (Human), UniProt P35372); assay: μ-opioid receptor radioligand dose-displacement binding assay (HEK); settings: HEK cells; [3H]-diprenorphine
Method: Radioligand dose-displacement binding assays for μ-opioid receptors used 0.3 nM [^3H]-diprenorphine (Perkin Elmer, Shelton, Conn.), with […] membrane protein/well in a final volume of 500 μl binding buffer (10 mM MgCl2, 1 mM EDTA, 5% DMSO, 50 mM HEPES, pH 7.4). Reactions were carried out in the absence or presence of increasing concentrations of unlabeled naloxone. All reactions were conducted in 96-deep well polypropylene plates for 2 hours at room temperature. Binding reactions were terminated by rapid filtration onto 96-well Unifilter GF/C filter plates (Perkin Elmer, Shelton, Conn.), presoaked in 0.5% polyethylenimine using a 96-well tissue harvester (Perkin Elmer, Shelton, Conn.) followed by performing three filtration washes with 500 μl of ice-cold binding buffer. Filter plates were subsequently dried at 50° C. for 2-3 hours. BetaScint scintillation cocktail (Perkin Elmer, Shelton, Conn.) was added (50 μl/well), and plates were counted using a Packard Top-Count for 1 min/well. The data were analyzed using the one-site competition curve fitting functions in GraphPad PRISM™ v. 3.0 or higher (San Diego, Calif.), or an in-house function for one-site competition curve-fitting.
(§1) In TABLE 2, binding affinity of certain Compounds of the Invention to the μ- and κ-opioid receptors was determined as described above using HEK cells.

κ opioid receptor [2] = target: T2, κ opioid receptor (Homo sapiens (Human), UniProt P41145); assay: κ-opioid receptor radioligand dose-displacement binding assay (HEK); settings: HEK cells; [3H]-U69,593
Method: Membranes from recombinantHEK-293 cells, CHO or U-2 OS cells expressing the recombinant human κ opioid receptor (κ) were prepared by lysing cells in ice cold hypotonic buffer (2.5 mM MgCl2, 50 mM HEPES, pH 7.4) (10 mL/10 cm dish) followed by homogenization with a tissue grinder/Teflon pestle. Membranes were collected by centrifugation at 30,000×g for 15 min at 4° C. and pellets were resuspended in hypotonic buffer to a final concentration of 1-3 mg/mL. Protein concentrations were determined using the BioRad protein assay reagent with bovine serum albumen as standard. Aliquots of κ receptor membranes were stored at −80° C.
Radioligand dose displacement assays used 0.4 nM [^3H]-U69,593 (GE Healthcare, Piscataway, N.J.; 40 Ci/mmole) with 15 μg membrane protein (recombinant κ opioid receptor expressed in HEK 293 cells; in-house prep) in a final volume of 200 μl binding buffer (5% DMSO, 50 mM Trizma base, pH 7.4). Non-specific binding was determined in the presence of 10 μM unlabeled naloxone or U69,593. All reactions were performed in 96-well polypropylene plates for 1 hour at a temperature of about 25° C. Binding reactions were terminated by rapid filtration onto 96-well Unifilter GF/C filter plates (Perkin Elmer, Shelton, Conn.) presoaked in 0.5% polyethylenimine (Sigma). Harvesting was performed using a 96-well tissue harvester (Perkin Elmer, Shelton, Conn.) followed by five filtration washes with 200 μl ice-cold binding buffer. Filter plates were subsequently dried at 50° C. for 1-2 hours. Fifty μl/well scintillation cocktail (Perkin Elmer, Shelton, Conn.) was added and plates were counted in a Packard Top-Count for 1 min/well.
as §1

μ-opioid receptor [3] = target: T1, μ-opioid receptor; assay: μ-opioid receptor [35S]GTPγS functional assay (HEK); format: biochemical; settings: for Emax: HEK, GTPγS, relative to DAMGO
Method: (§2) [^35S]GTPγS functional assays were conducted using freshly thawed μ-receptor membranes prepared in-house from a cell line expressing recombinant μ opioid receptor in a HEK-293, CHO or U-2 OS cell background, or purchased from a commercial source (Perkin Elmer, Shelton, Conn.; or DiscovRx, Fremont, Calif.). Assay reactions were prepared by sequentially adding the following reagents to binding buffer (100 mM NaCl, 10 mM MgCl2, 20 mM HEPES, pH 7.4) on ice (final concentrations indicated): membrane protein (0.026 mg/mL), saponin ([…]), GDP ([…]) and [^35S]GTPγS (0.20 nM; Perkin Elmer, Shelton, Conn.). The prepared membrane solution (190 μl/well) was transferred to 96-shallow well polypropylene plates containing 10 μl of 20× concentrated stock solutions of the agonist [D-Ala^2, N-methyl-Phe^4 Gly-ol^5]-enkephalin (DAMGO) prepared in dimethyl sulfoxide (DMSO). Plates were incubated for […] at about 25° C. with shaking. Reactions were terminated by rapid filtration onto 96-well Unifilter GF/B filter plates (Perkin Elmer, Shelton, Conn.) using a 96-well tissue harvester (Perkin Elmer, Shelton, Conn.) followed by three filtration washes with 200 μl of ice-cold wash buffer (10 mM NaH2PO4, 10 mM Na2HPO4, pH 7.4). Filter plates were subsequently dried at 50° C. for 2-3 hours. BetaScint scintillation cocktail (Perkin Elmer, Shelton, Conn.) was added (50 μl/well) and plates were counted using a Packard Top-Count for 1 min/well. Data were analyzed using the sigmoidal dose-response curve fitting functions in GraphPad PRISM v. 3.0, or an in-house function for non-linear, sigmoidal dose-response curve-fitting.
(§3) μ GTP EC50 is the concentration of a compound providing 50% of the maximal response for the compound at a μ-opioid receptor.
(§4) μ GTP Emax (%) is the maximal effect elicited by a compound relative to the effect elicited by DAMGO, a standard agonist. Generally, the μ GTP Emax (%) value measures the efficacy of a compound to treat or prevent pain or other Conditions.
(§5) In TABLE 3, activity response of certain Compounds of the Invention to the μ- and κ-opioid receptors was determined as described above for functional assays using HEK cells.

κ opioid receptor [4] = target: T2, κ opioid receptor; assay: κ-opioid receptor [35S]GTPγS functional assay (HEK); format: biochemical; settings: for Emax: HEK, GTPγS, relative to U69,593
Method: (§6) Functional [^35S]GTPγS binding assays were conducted as follows. K opioid receptor membrane solution was prepared by sequentially adding final concentrations of 0.026 μg/μl membrane protein (in-house), 10 μg/mL saponin, 3 μM GDP and 0.20 nM [^35S]GTPγS to binding buffer (100 mM NaCl, 10 mM MgCl2, 20 mM HEPES, pH 7.4) on ice. The prepared membrane solution (190 μl/well) was transferred to 96-shallow well polypropylene plates containing 10 μl of 20× concentrated stock solutions of agonist prepared in DMSO. Plates were incubated for 30 min at a temperature of about 25° C. with shaking. Reactions were terminated by rapid filtration onto 96-well Unifilter GF/B filter plates (Perkin Elmer, Shelton, Conn.) using a 96-well tissue harvester (Packard) and followed by three filtration washes with 200 μl ice-cold binding buffer (10 mM NaH2PO4, 10 mM Na2HPO4, pH 7.4). Filter plates were subsequently dried at 50° C. for 2-3 hours. Fifty μl/well scintillation cocktail (Perkin Elmer, Shelton, Conn.) was added and plates were counted in a Packard Top-Count for 1 min/well.
(§7) GTP EC50 is the concentration of a compound providing 50% of the maximal response for the compound at a κ receptor.
(§8) κ GTP Emax (%) is the maximal effect elicited by a compound relative to the effect elicited by U69,593.
as §5

μ-opioid receptor [5] = target: T1, μ-opioid receptor; assay: μ-opioid receptor [35S]GTPγS functional assay (U-2 OS); format: biochemical; settings: for Emax: U2OS, GTPγS, relative to DAMGO
Method: as §2, §3, §4
(§9) In TABLE 4, activity response of certain Compounds of the Invention to the μ- and κ-opioid receptors was determined as described above for functional assays using U-2 OS cells.

κ opioid receptor [6] = target: T2, κ opioid receptor; assay: κ-opioid receptor [35S]GTPγS functional assay (U-2 OS); format: biochemical; settings: for Emax: U2OS, GTPγS, relative to U69,593
Method: as §6, §7, §8, §9

SMILES	Ki (μ-opioid receptor [1]) [nM]	Ki (κ opioid receptor [2]) [nM]	EC50 (μ-opioid receptor [3]) [nM]	Emax (μ-opioid receptor [3]) [%]	EC50 (κ opioid receptor [4]) [nM]	Emax (κ opioid receptor [4]) [%]	EC50 (μ-opioid receptor [5]) [nM]	Emax (μ-opioid receptor [5]) [%]	EC50 (κ opioid receptor [6]) [nM]	Emax (κ opioid receptor [6]) [%]
COc1ccc2c(c1)[C@]13CCN(CC4CC4)[C@H](C2)[C@]1(O)C[C@H]1CC(=O)N[C@H]1C3 [Compound 1, (6R,6aS,7aS,10aS,11aR)-14-(cyclopropylmethyl)-6a-hydroxy-2-methoxy-5,6,6a,7,7a,8,10a,11-octahydro-6,11a-(epiminoethano)naphtho[2,1-f]indol-9(10H)-one]	533 ± 170	12.4 ± 3.09	821 ± 190	25.8 ± 0.48	1770 ± 713	77 ± 8.19	223 ± 42	81.7 ± 3.33	66.9 ± 3.47	99 ± 1.53
O=C1C[C@@H]2C[C@@]3(O)[C@H]4Cc5ccc(O)cc5[C@@]3(CCN4CCc3ccccc3)C[C@@H]2N1 [Compound 5, (6R,6aS,7aS,10aS,11aR)-2,6a-dihydroxy-14-phenethyl-5,6,6a,7,7a,8,10a,11-octahydro-6,11a-(epiminoethano)naphtho[2,1-f]indol-9(10H)-one]	–	4.03 ± 0.7	1.94 ± 0.073	99.7 ± 2.03	> 20000	-0.25 ± 0.75	–	–	–	–
O=C1C=C2C[C@@]3(O)[C@H]4Cc5ccc(O)cc5[C@@]3(CCN4CC3CC3)CC2N1 (stereo partly drawn) [Compound 9, (6R,6aS,11aR)-14-(cyclopropylmethyl)-2,6a-dihydroxy-5,6,6a,7,10a,11-hexahydro-6,11a-(epiminoethano)naphtho[2,1-f]indol-9(10H)-one]	2.34 ± 0.27	2.16 ± 0.45	> 20000	1	7.24 ± 1.69	27.2 ± 3.45	6.35 ± 1.74	19.5 ± 0.29	4.96 ± 0.59	87.5 ± 6.44
O=C1C[C@@H]2C[C@@]3(O)[C@H]4Cc5ccc(O)cc5[C@@]3(CCN4CC3CC3)C[C@@H]2N1 [Compound 10, (6R,6aS,7aS,10aS,11aR)-14-(cyclopropylmethyl)-2,6a-dihydroxy-5,6,6a,7,7a,8,10a,11-octahydro-6,11a-(epiminoethano)naphtho[2,1-f]indol-9(10H)-one]	0.8 ± 0.1	0.16 ± 0.017	> 20000	0	1 ± 0.18	76.2 ± 5.39	1.59 ± 0.19	46 ± 1	0.42 ± 0.027	112 ± 2.65
CCN1C(=O)C[C@@H]2C[C@@]3(O)[C@H]4Cc5ccc(O)cc5[C@@]3(CCN4CC3CC3)C[C@@H]21 [Compound 16, (6R,6aS,7aS,10aS,11aR)-14-(cyclopropylmethyl)-10-ethyl-2,6a-dihydroxy-5,6,6a,7,7a,8,10a,11-octahydro-6,11a-(epiminoethano)-naphtho[2,1-f]indol-9(10H)-one]	–	0.31 ± 0.085	4.18 ± 0.61	20 ± 0.91	0.66 ± 0.059	49.7 ± 2.19	–	–	–	–
